The text below walks through data of patent WO2020158863A1, “Combined drug of anthracycline compound-containing micelle preparation with immunostimulant” (priority 2019, dated 2020).

As usually defined, the IC50 is the concentration at which inhibition is half-maximal. A low value points to greater potency.

Series [1] concerns GL261 cells. Briefly: ICD marker expression on cell surface, flow cytometry, GL261 cells. It counts as cell-based, mouse. The conditions noted are these: 24 h; negative control; Fig. 8G. Background: Flow cytometry measures light scatter and fluorescence of single cells or particles in a stream.
Series [2] has as its system mouse pancreatic cancer cells KPC. Kind of series: IC50 for mouse pancreatic cancer cells KPC (Experimental Example 13-1). In kind it is cell-based. The conditions noted are these: Pancreatic cancer cell.
A further series relates to KPC cells. Briefly: ICD marker expression, flow cytometry, KPC cells (Experimental Example 13-2). Conditions: 24 h, Fig. 21; for HSP70 level / HSP90 level / calreticulin level: 1 μg/mL or 5 μg/mL. In kind it is cell-based, mouse.
The test system of the next series is CT2A cells. Kind of series: Cytotoxic activity (IC50), CT2A cells (Experimental Example 6). Conditions: PTEN-negative; 48 h; Fig. 8F. In kind it is cell-based, mouse.
The subject of the next series is PD-L1. Briefly: PD-L1 expression in CT2A tumors, flow cytometry (Experimental Example 10). It counts as in vivo, mouse. Conditions: 8 days after single tail vein injection, 6 mg/kg Epi equivalent; Fig. 16.
Series [3] concerns GL261-luc tumor. Briefly: Orthotopic GL261-luc tumor in wild type mice (Experimental Example 7-1). In kind it is in vivo, mouse. The conditions noted are these: wild type C57/BL6; 5 mg/kg Epi equivalent.
The test system of series [4] is GL261 cells. Briefly: Cytotoxic activity (IC50), GL261 cells (Experimental Example 6).
Series [5] relates to GL261-luc tumor. Kind of series: Orthotopic GL261-luc tumor in nude mice (Experimental Example 7-1). It counts as in vivo, mouse. Conditions: nude BALB/c; 5 mg/kg Epi equivalent.
The test system of series [6] is fibrosarcoma cell carcinoma line (MCA205, Sarcoma180, NIH3T3, HT1080). Kind of series: IC50 against fibrosarcoma cell lines (Experimental Example 12-1). It counts as cell-based.
Series [7] deals with mouse glioblastoma (GBM) cells GL261. Briefly: in vitro cytotoxicity assay (Experimental Example 3). In kind it is cell-based. Conditions: 3 h exposure, 48 h incubation; Fig. 3.
The subject of series [8] is various cancer cells (MCA205, AB12, GL261, CT2A, LL2, C26). Kind of series: IC50 against various cancer cells (Experimental Example 11-1). In kind it is cell-based.

Structures are written as SMILES. Where a name gives a salt, the structure may show the parent alone.

For the compound `[NH2][Pt]([NH2])([Cl])[Cl]` [CDDP, Cisplatin], the ICD marker level entry with GL261 cells [1] is “did not significantly increase the marker”.

`COc1cccc2c1C(=O)c1c(O)c3c(c(O)c1C2=O)C[C@@](O)(C(=O)CO)C[C@@H]3O[C@H]1C[C@H](N)[C@H](O)[C@H](C)O1` [DOX, doxorubicin hydrochloride]: the half-maximal inhibitory concentration (IC50) in [2] is ≤ 2 µg/mL. Further, in the series with KPC cells, the HSP70 level entry is “significantly increased”, the HSP90 level result is listed as “significantly increased” and the calreticulin level entry was “significantly increased”.

Consider `COc1cccc2c1C(=O)c1c(O)c3c(c(O)c1C2=O)C[C@@](O)(C(=O)CO)C[C@@H]3O[C@H]1C[C@H](N)[C@@H](O)[C@H](C)O1` [Epi, Epirubicin hydrochloride], for which the cytotoxic activity result is reported as “high activity against PTEN-negative CT2A cells, comparable to the activity against GL261 cells” with CT2A cells and “high cytotoxic activity” with GL261 cells [4] (PTEN-positive, 48 h, Fig. 8E). Besides, in the series on PD-L1, the “expression level of PD-L1 in tumor cells” value is “no such reduction in expression levels occurred”. Further, the “tumor growth rate / tumor-derived luminescence” value in the series on GL261-luc tumor [3] is given as “the tumor growth rate was not suppressed”. For the same compound, the IC50 with GL261 cells [4] (Mus musculus, GL261, 48 h) was < 1 µg/mL; in series [6], ≤ 2 µg/mL; in series [8] it was ≤ 1 µg/mL. The tumor growth rate entry in the series with GL261-luc tumor [5] was “the tumor growth rate was not suppressed”. The in vitro cytotoxicity result in series [7] is given as “high in vitro cytotoxicity”. Also, the HSP70 level result with KPC cells is given as “significantly increased”. In the series on KPC cells, the HSP90 level result was “significantly increased”. In the series on KPC cells, the calreticulin level entry is given as “significantly increased”.

Consider `CCc1c2c(nc3ccc(OC(=O)N4CCC(N5CCCCC5)CC4)cc13)-c1cc3c(c(=O)n1C2)COC(=O)[C@]3(O)CC` [irinotecan], for which the ICD marker level entry in the series with KPC cells (any concentration) is given as “did not significantly increase the marker at any concentration”.
